According to PubChem BioAssay (NCI):
“And” between values parts separate entries of the source, which are not always exact repeats. Equal values may be shown once.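 A five-concentration, 48-hour dose response in 96-well plates underlies each endpoint, interpolated linearly between surrounding concentrations. GI50 marks 50% less growth. TGI denotes the concentration required for complete inhibition of growth.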

Tests used:
Experiment in all cases: NCI-60 cell line screen, 48 h
NCI/ADR-RES ovarian = tested on: NCI/ADR-RES ovarian
SK-MEL-28 melanoma = tested on: SK-MEL-28 melanoma
SNB-19 CNS = tested on: SNB-19 CNS
MDA-MB-435 = tested on: MDA-MB-435
MALME-3M melanoma = tested on: MALME-3M melanoma
MDA-MB-231 breast = tested on: MDA-MB-231 breast
TK-10 renal = tested on: TK-10 renal
BT-549 breast = tested on: BT-549 breast
HL-60(TB) leukemia = tested on: HL-60(TB) leukemia
NCI-H226 lung = tested on: NCI-H226 lung

Row | Compound | TGI (NCI/ADR-RES ovarian) | TGI (SK-MEL-28 melanoma) | TGI (SNB-19 CNS) | TGI (MDA-MB-435) [µM] | TGI (MALME-3M melanoma) | TGI (MDA-MB-231 breast) [µM] | TGI (TK-10 renal) [µM] | TGI (BT-549 breast) [µM] | GI50 (NCI/ADR-RES ovarian) [µM] | GI50 (MDA-MB-435) [µM] | GI50 (MDA-MB-231 breast) [µM] | TGI (HL-60(TB) leukemia) | TGI (NCI-H226 lung) | GI50 (SNB-19 CNS) [µM] | GI50 (TK-10 renal) [µM] | GI50 (HL-60(TB) leukemia) [µM] | GI50 (SK-MEL-28 melanoma) [µM] | GI50 (NCI-H226 lung) | GI50 (MALME-3M melanoma) [µM] | GI50 (BT-549 breast) [µM]
1 | COC(=O)C1=CSC2(S1)C(C(=O)OC)=CSc1c2ssc1=Nc1ccccc1 (centres undefined) | 3.8 µM | 5.76 µM | 8.71 µM | 5.09 | 4.95 µM | 4.79 | 10.4 | 22.6 | – | – | – | – | – | – | – | – | – | – | – | –
2 | CC(=O)C(O)N1C(=O)C=CC1=O (centres undefined) | – | – | – | – | – | – | – | 24.8 | 12000 | 10700 | 13400 | – | – | – | – | – | – | – | – | –
3 | CCCCCCNC(=O)c1cnc(Cl)cn1 | 34.2 µM | 74.9 µM | 43.7 µM | 28.9 | 31.1 µM | 32.4 | > 100 | 82.4 | – | – | – | 47.8 µM | 21.7 µM | – | – | – | – | – | – | –
4 | COc1ccc(N2C(=O)C3c4[nH]c5c(C)cccc5c4C4CCC(C(C)(C)C)CC4C3C2=O)cc1 (centres undefined) | > 10 µM | > 10 µM | > 10 µM | > 10 | > 10 µM | > 10 | > 10 | – | – | – | – | > 10 µM | > 10 µM | – | – | – | – | – | – | –
5 | NC(=O)CCCC(NCc1c2ccccc2nc2ccccc12)C(=O)O (centres undefined) | – | > 100 µM | – | – | > 100 µM | – | > 100 | – | – | – | – | 62.2 µM | > 100 µM | – | – | – | – | – | – | –
6 | COc1ccc([C@@H]2ON(C)[C@H]3CN(C)C(=O)[C@@H]23)cc1 | > 100 µM | > 100 µM | > 100 µM | – | – | > 100 | > 100 | – | – | – | – | > 100 µM | > 100 µM | – | – | – | – | – | – | –
7 | CN1CCCCC1CCN1CCCCC1 (centres undefined) | > 100 µM | > 100 µM | > 100 µM | > 100 | > 100 µM | > 100 | > 100 | > 100 | – | – | – | > 100 µM | > 100 µM | – | – | – | – | – | – | –
8 | Cc1ccccc1N=Nc1ccc(N=Nc2c(O)ccc3ccccc23)c(C)c1 | > 100 µM | > 100 µM | > 100 µM | > 100 | > 100 µM | > 100 | > 100 | > 100 | – | – | – | – | > 100 µM | – | – | – | – | – | – | –
9 | CCCCCCCSc1nc2c(C(=O)OCC)ncn2c2ccccc12 | – | > 100 µM | – | – | > 100 µM | – | > 100 | – | – | – | – | > 100 µM | > 100 µM | – | – | – | – | – | – | –
10 | CC1C(O)C2(Oc3cc4c(c5c3[C@@H](CC5O)[C@H]2C)CCC2Cc3nc5c(nc3C[C@@]42C)CC2CCC3C4=C[C@H]6O[C@@]7(O[C@@](C)(CO)C[C@@H]7O)C(C)[C@@]6(O)[C@]4(C)[C@@H](O)CC3[C@]2(C)C5)OC1(C)C (some centres undefined) | > 3.67 µM | – | – | – | 0.66 µM | – | – | – | – | – | – | 0.177 µM | 1.23 µM | – | – | – | – | – | – | –
11 | Cc1cc(NCc2cc(Nc3ccnc4cc(Cl)ccc34)ccc2F)nc(N2CCCC2)n1 | – | – | 10.1 µM | 3.01 | – | – | 3.61 | – | – | 1.61 | – | – | – | 2.82 | 1.94 | – | – | – | – | –
12 | O=C1c2c(c3c4ccccc4[nH]c3c3ccc4ccccc4c23)C(=O)N1CCN1CCCCC1 | 3.31 µM | 3.16 µM | 46.4 µM | 3.26 | 2.92 µM | 5.08 | > 100 | – | 0.797 | 1.72 | 1.95 | 3.31 µM | 3.39 µM | 0.94 | 3.38 | 1.07 | 1.65 | 1.23 µM | 1.33 | –
13 | Cc1ccc(S(=O)(=O)NCCSCCNS(=O)(=O)c2ccc(C)cc2)cc1 | > 100 µM | > 100 µM | > 100 µM | > 100 | – | > 100 | > 100 | – | – | – | – | – | > 100 µM | – | – | – | – | – | – | –
14 | NC(=O)NN=C(CS)CS | 71.9 µM | 80.8 µM | 52.3 µM | – | 40 µM | – | – | – | – | – | – | 2.52 µM | – | – | – | – | – | – | – | –
15 | Cc1sc(Cc2ccccc2)nc1-c1ccc(N)cc1 | > 100 µM | 61.4 µM | > 100 µM | 37.7 | 90.2 µM | 84.8 | > 100 | 83.4 | – | – | – | > 100 µM | – | – | – | – | – | – | – | –
16 | Cc1c2cc[n+](CCN3CCCCC3)cc2c(C)c2c1[nH]c1ccc(O)cc12 | 72.2 µM and > 100 µM | 33.7 µM and > 45.9 µM | 10.2 µM and 29.1 µM | 34.5 | 25.9 µM and 19.2 µM | 34.7 | > 57.6 | 28.7 | 27.4 | – | – | 26.5 µM and > 40.4 µM | 55.1 µM and 32.7 µM | 1.96 | – | 3.67 | 9.29 | 1.47 µM and 3.75 µM | 3.17 | –
17 | CN(C)c1ccc(/C=N\NC(=O)CSCC(=O)N/N=C/c2ccc(N(C)C)cc2)cc1 | > 100 µM | > 100 µM | > 100 µM | > 100 | > 100 µM | 58.6 | > 100 | 80.4 | – | – | – | > 100 µM | > 100 µM | – | – | – | – | – | – | –
18 | O=c1ccc2cc(O)c(O)cc2o1 | > 100 µM | > 100 µM | > 100 µM | > 100 | > 100 µM | > 100 | > 100 | > 100 | – | – | – | > 100 µM | > 100 µM | – | – | – | – | – | – | –
19 | CN(C)CCNc1nc(-c2ccc3ccccc3c2)nc2nc[nH]c12 | 22.9 µM | 28.9 µM | 28.1 µM | 25 | 16.6 µM | 26.5 | 19.4 | 23.4 | – | – | – | > 100 µM | 16.6 µM | – | – | – | – | – | – | –
20 | C[C@@H]1CC[C@H]2C(COCCOCC3=C(C(F)(F)F)O[C@@H]4O[C@@]5(C)CC[C@H]6[C@H](C)CC[C@@H]3[C@@]46OO5)=C(C(F)(F)F)O[C@@H]3O[C@@]4(C)CC[C@@H]1[C@]32OO4 | > 100 µM | > 55.3 µM | > 100 µM | > 100 | 9.26 µM | > 15.8 | > 100 | > 100 | 5.57 | 0.0426 | 1.97 | – | > 100 µM | – | 0.0557 | < 0.0213 | > 7.2 | 0.102 µM | < 0.01 | 0.224
21 | NC(N)=N/N=C/c1c(-c2ccccc2)nc2n1ccc1nc(-c3ccccc3)c(/C=N/N=C(N)N)n12 | > 100 µM | > 100 µM | > 100 µM | > 100 | 84 µM | > 100 | > 100 | > 100 | – | – | – | > 100 µM | > 100 µM | – | – | – | – | – | – | –
22 | CC1=NN(c2ccccc2)C(=O)/C1=C/c1ccc(O)cc1 | > 100 µM | > 100 µM | > 100 µM | > 100 | > 100 µM | > 100 | > 100 | – | – | – | – | > 100 µM | > 100 µM | – | – | – | – | – | – | –
23 | CC1=C2C(=O)c3ccccc3C(=O)[C@H]2[C@H]2CCO[C@H]2O1 | 67 µM | 63.1 µM | > 100 µM | 39.8 | 35.9 µM | 51.7 | 67 | 28.2 | – | – | – | 61.1 µM | > 100 µM | – | – | – | – | – | – | –
24 | C/C=C/[P+](c1ccccc1)(c1ccccc1)c1ccccc1 | > 100 µM | 17.5 µM | 15 µM | 5.97 | 13.6 µM | 14.4 | 20.3 | 3 | – | – | – | 2.78 µM | 41.4 µM | – | – | – | – | – | – | –
25 | Cc1ccc(Oc2ccc(C)cc2[N+](=O)[O-])cc1 | – | > 100 µM | – | – | > 100 µM | – | > 100 | – | – | – | – | 79.7 µM | > 100 µM | – | – | – | – | – | – | –
